Measurements reported in US20070274946A1, “Tolerance to Graft Prior to Thymic Reactivation” (Norwood Immunoloty, Ltd., priority 1999, published 2007).

Key:
[1] = Chemical castration versus surgical castration after cyclophosphamide T cell depletion; type: in vivo, mice
From the text: FIG. 9: Changes in thymus (open bars), spleen (gray bars) and lymph node (black bars) cell numbers following treatment with cyclophosphamide, a chemotherapy agent, and surgical or chemical castration performed on the same day. Note the rapid expansion of the thymus in castrated animals when compared to the non-castrate (cyclophosphamide alone) group at 1 and 2 weeks post-treatment. In addition, spleen and lymph node numbers of the castrate group were well increased compared to the cyclophosphamide alone group. (n=3-4 per treatment group and time point).
Old mice (e.g., 2 years old) were injected with cyclophosphamide (200 mg/kg body wt over two days) and castrated.
FIG. 9 illustrates the use of chemical castration compared to surgical castration in enhancement of T cell regeneration. […] The enhancing effects were equivalent on thymic expansion and also the recovery of spleen and lymph node. The kinetics of chemical castration are slower than surgical, that is, mice take about 3 weeks longer to decrease their circulating sex steroid levels. However, chemical castration is still as effective as surgical castration and can be considered to have an equivalent effect.

[2] = Chemical castration of aged female Balb/cJ mice, radioimmunoassay of plasma sex steroids; type: in vivo; conditions: 10 mg/kg s.c., 1 month slow release formulation
Description: To do this, aged (i.e., 2 year old) female Balb/cJ (H-2d) mice are either surgically castrated (e.g., by removing the ovaries according to standard methods), or are chemically castrated. For chemical castration, mice are injected subcutaneously with 10 mg/kg Lupron (a GnRH agonist) as a 1 month slow release formulation. Alternatively mice are injected with a GnRH antagonist (e.g., Cetrorelix or Abarelix). Confirmation of loss of sex steroids is performed by standard radioimmunoassay of plasma samples following manufacturer's instructions, and may be monitored throughout the procedure.

[3] = chronic administration; cited from earlier work
[4] = Sex steroid ablation therapy of the patient with an LHRH agonist (Example 6); type: in vivo, human; conditions: single dose effective for 3 months
Description: The patient was given sex steroid ablation therapy in the form of delivery of an LHRH agonist. This was given in the form of either Leucrin (depot injection; 22.5 mg) or Zoladex® (implant; 10.8 mg), either one as a single dose effective for 3 months. […] In some cases it is also necessary to deliver a suppresser of adrenal gland production of sex steroids. Cosudex® (5 mg/day or 50 mg/day) may also be given as one tablet per day for the duration of the sex steroid ablation therapy. Alternatively, the patient is given a GnRH antagonist, e.g., Cetrorelix or Abarelix as a subcutaneous injection

[5] = tested on: IL-7-dependent murine pre-B cell line 2E8; assay: Thymidine incorporation proliferation assay with IL-7-dependent cell line; type: cell-based; conditions: 2E8 cells
Description: Tissue culture medium consisted of RPMI 1640 supplemented with 10% heat inactivated fetal calf serum, 100 U/mL penicillin, […] streptomycin, and 2 mM L-glutamine (as well as […] 2-mercaptoethanol for the culture of 32Dp210 cells and proliferation assays).

[6] = IL-7 administration with or without castration after allogeneic HSCT, thymic cellularity; type: in vivo, mice
From the text: Male C57BL/6J (B6, H-2b), C3FeB6F1/J([B6 3 C3H]F1; H-2b/k), B10.BR (H-2k), B6D2F1/J (H-2b/d), CBA/J (H-2k), Balb/c (H2-d), IL7−/− and KGF−/− mice were obtained from the Jackson Laboratory (Bar Harbor, Maine) and used in experiments when they were between 8 and 12 weeks of age. KGF−/− and IL7−/− were used between 4 and 7 months of age. HSCT protocols were approved by the Memorial Sloan-Kettering Cancer Center Institutional Animal Care and Use Committee. The BM cells were removed aseptically from femurs and tibias. Donor BM was depleted of T cells by incubation with anti-Thy-1.2 for 30 minutes at 4° C. followed by incubation with Low-TOX-M rabbit complement (Cedarlane Laboratories, Hornby, ON, Canada) for 1 hour at 37° C. Splenic T cells (for GVHD analysis) were obtained by purification over a nylon wool column followed by red cell removal with ammonium chloride red cell lysis buffer. Cells (5×10^6 BM cells with or without splenic T cells and leukemia cells) were resuspended in Dulbecco modified essential medium (Life Technologies, Grand Island, N.Y.) and transplanted by tail vein infusion (0.25 mL total volume) into lethally irradiated recipients on day 0. Prior to transplantation, on day 0, recipients received 1300 cGy total body irradiation (^137Cs source) as split dose with 3 hours between doses (to reduce gastrointestinal toxicity). Mice were housed in sterilized microisolator cages and received normal chow and autoclaved hyperchlorinated drinking water (pH 3.0).
IL-7 were either given from days 0 to 13 or 21 to 27 intraperitoneally at 10 μg/day for immune reconstitution studies. PBS was injected into control mice at the same time points.
BM cells, splenocytes or thymocytes were washed in FACS buffer (phosphate buffered saline (PBS)/2% bovine serum albumin (BSA)/0.1% azide) and 1-3×10^6 cells were incubated for 30 minutes at 4° C. with CD16/CD32 FcR block. Cells were then incubated for 30 minutes at 4° C. with primary antibodies and washed twice with FACS buffer. Where necessary, cells were incubated with conjugated Streptavidin for a further 30 minutes at 4° C. The stained cells were resuspended in FACS buffer and analyzed on a FACSCalibur™ flow cytometer (Becton Dickinson, San Jose, Calif.) with CellQuest™ software.

CCNC(=O)[C@@H]1CCCN1C(=O)[C@H](CCCN=C(N)N)NC(=O)[C@H](CC(C)C)NC(=O)[C@@H](Cc1c[nH]c2ccccc12)NC(=O)[C@H](Cc1ccc(O)cc1)NC(=O)[C@H](CO)NC(=O)[C@H](Cc1c[nH]c2ccccc12)NC(=O)[C@H](Cc1cnc[nH]1)NC(=O)[C@@H]1CCC(=O)N1 [Deslorelin]
additional time to decrease circulating sex steroid levels versus surgical castration ([1]; chemical castration): about 3 weeks
rate of regeneration post-cyclophosphamide treatment compared to surgical castration ([1]; injected for four weeks, T cell regeneration): comparable rate of regeneration
enhancing effects on thymic expansion and recovery of spleen and lymph node versus surgical castration ([1]; post-cyclophosphamide): equivalent

CCNC(=O)[C@@H]1CCCN1C(=O)[C@H](CCCNC(=N)N)NC(=O)[C@H](CC(C)C)NC(=O)[C@@H](CC(C)C)NC(=O)[C@H](Cc1ccc(O)cc1)NC(=O)[C@H](CO)NC(=O)[C@H](Cc1c[nH]c2ccccc12)NC(=O)[C@H](Cc1c[nH]cn1)NC(=O)[C@@H]1CCC(=O)N1 [Lupron, leuprolide acetate]
time post injection to castrate levels (<0.5 ng estrogen/ml) [2]: 3-4 weeks

CC(C)C[C@H](NC(=O)[C@@H](COC(C)(C)C)NC(=O)[C@H](Cc1ccc(O)cc1)NC(=O)[C@H](CO)NC(=O)[C@H](Cc1c[nH]c2ccccc12)NC(=O)[C@H](Cc1cnc[nH]1)NC(=O)[C@@H]1CCC(=O)N1)C(=O)N[C@@H](CCCNC(=N)N)C(=O)N1CCC[C@H]1C(=O)NNC(N)=O [Zoladex, goserelin acetate]
serum testosterone levels in males [3]: a range normally seen in surgically castrated men
time to sustained suppression of pituitary LH after initiation of therapy [3]: approximately three
reduction of sex steroid levels [4]: effective in reducing sex steroid levels sufficiently to reactivate the thymus

IL-7: Recombinant human IL-7 provided by Cytheris
proliferative effect on murine cells [5]: equal to murine IL-7
thymic cellularity, combined treatment (castration and IL-7) ([6]; day 14 after allo-HSCT): significantly more cells
thymic cellularity, IL-7 treated sham-castrated versus PBS treated sham-castrated ([6]; day 14 after allo-HSCT, 10 ug/day i.p. days 0-13): no difference
effect of IL-7 treatment combined with castration on thymic cellularity ([6]; day 28 after allo-HSCT): additive effect
thymic cellularity, IL-7 alone group versus control group ([6]; day 28 after allo-HSCT): significantly higher
